This is an account of results in patent US20230042198A1, “Methods and Compositions for Modulationg Heterochromatin Dysfunction, Genomic Instability, and Associate Conditions” (La Jolla Institute for Immunology, priority 2019, published 2023).

For this assay, the system named is IMR90 fibroblasts, CD4+ and CD8+ T cells, CD34+ cells. In words: Senescence and heterochromatic hypomethylation with cell division/aging, rescue with Vitamin C. Type of assay: cell-based, human. As to conditions: activator of TET proteins. The source says:
Example 9: The inventors investigated heterochromatin dysfunction as a function of both cellular age and number of cell divisions, using multiple cellular systems: IMR90 fibroblasts, freshly isolated CD4+ and CD8+ T cells from young and old human donors, and commercially available CD34^+ cells (enriched for hematopoietic precursor cells) from human newborns (cord blood) and older adults.
Tet1/2/3 triple-foxed (Tet1/2/3 Tfl) RosaYFP^LSL or RosaYFP^LSL mice were used, left […] with tamoxifen; (ii) DNMT3a (or multiple Dnmt) foxed mice, also bearing the RosaYFP^LSL reporter and left […] with tamoxifen. Mouse fibroblasts have a longer passage time to senescence, so IMR90 human fibroblasts in which partial TET or DNMT loss-of-function was induced by genome editing were also used.

`O=C1O[C@H]([C@@H](O)CO)C(O)=C1O` [Vitamin C]: the “hypomethylation observed with cell division and/or aging” value is “can be rescued” and the time to senescence entry is “can be delayed”.
